Measured values taken from PubChem BioAssay AID2060484 (Molecular Pharmacology Branch, DTP, NCI, 2025).
Values joined by “and” are separate entries in the source; they are usually repeats but may differ in a detail not shown here. Identical values can stand only once.

Test system: SUM149PT spheroids with HUVEC/MSC, viability
Assay: Anticancer human tumor SUM149PT cell line growth inhibition [GQUAD];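 note: spheroids exposed to drugs for seven days before readout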;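 for viability, T/C: percent viability relative to DMSO vehicle control taken as 100%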
Details: for viability, T/C: stronger effect = lower value
From the text: DNA G-quadruplex Stabilizer Agents in Combinations in Complex Spheroids
A high-throughput screen of multi-cell type tumor spheroids was designed to identify active combinations of DNA G-quadruplex stabilizer agents and targeted small molecules. Complex spheroids include a stromal component modeled by human endothelial cells (HUVEC) and fibroblasts modeled by human mesenchymal stem cells (MSCs). The concentration ranges selected for each drug and investigational agent were based upon clinically achievable concentrations if the clinical Cmax of the agent was known.
Compounds. The drugs and investigational agents: pidnarulex (CX-5461; NSC782164), APTO-253 (NSC789042), BRACO-19 (NSC847499), peposertib (NSC802822), ceralasertib (NSC780249), elimusertib (NSC800525), camonsertib (NSC841442), AZD-1390 (NSC803789), olaparib (NSC753686), talazoparib (NSC767125), ART-558 (NSC835418), sotorasib (NSC818433), MRTX-1133 (NSC836407), SN-38 (NSC673596), topotecan (NSC609699), etoposide (NSC141540), doxorubicin (NSC123127), gemcitabine (NSC613327), 5-fluorouracil (NSC19893), paclitaxel (NSC125973), vemurafenib (NSC761431), panobinostat (NSC761190), R-306465 (JNJ-16241199; NSC773264), adavosertib (NSC754352), TP-3654 (NSC805149), carboplatin (NSC241240), KSQ-4279 (NSC840948), and staurosporine (NSC755774) were obtained from the National Cancer Institute (NCI) Developmental Therapeutics Program Chemical Repository (34). The FDA-approved anticancer drug set is available from the NCI Developmental Therapeutics Program. […] The stock solutions were prepared in dimethyl sulfoxide (DMSO, Sigma-Aldrich, St. Louis, MO, cat. D2650) at 800-fold the tested concentration and stored at -70 degrees C prior to their use. All drugs and investigational agents were tested over a range starting from a high concentration at or near the clinical Cmax and decreasing in half-log increments. If the clinical Cmax for an agent had not been determined, the highest concentration tested was 10 microM.
2.3 Cell Culture. All cells were maintained in an incubator at 37 degrees C and 5% CO2 with 95% humidity. The PDC lines were cultured according to standard operating procedures established by the NCI PDMR. All PDCs were thawed and cultured in Matrigel-coated flasks prepared with a working solution of 1X Ham's F-12 nutrient mix, without supplementation (Invitrogen, cat. 11765054), 100 U/mL penicillin-streptomycin (Invitrogen, cat. 15140122), and 2.5% Matrigel (Corning Inc., cat. 354248) for the first three passages. The 857933-349-R-J2-PDC line was cultured in 6C/Colon 1B media, which includes advanced DMEM/F-12 (Thermo Fisher Scientific, cat. 12634028), 10 mM HEPES (Thermo Fisher Scientific, cat. 15630080), 1X GlutaMAX supplement (Thermo Fisher Scientific, cat. 35050061), 0.1 mg/mL primocin (InvivoGen, cat. ant-pm-2), 10% defined fetal bovine serum, heat inactivated (HyClone Laboratories Inc., cat. SH30070.03HI), 50% L-WRN conditioned media (ATCC, cat. CRL-3276), 1.25 mM N-Acetyl-L-cysteine (Sigma-Aldrich, cat. A9165), 10 mM nicotinamide (Sigma-Aldrich, cat. N0636), 1X B-27 supplement (Thermo Fisher Scientific, cat. 17504044), 1X N-2 supplement (Thermo Fisher Scientific, cat. 17502048), 10 microM Y-27632 dihydrochloride (Tocris Bioscience, cat. 1254), and 50 ng/mL human EGF recombinant protein (Thermo Fisher Scientific, cat. PHG0311). The 485176-168-R4-J1-PDC line was cultured in Panc media, which includes all 6C/Colon 1B media components plus 100 ng/mL human FGF-10 (Thermo Fisher Scientific, cat. 100-26), 500 nM SB-431542 (Selleckchem, cat. S1067), and gastrin (Tocris, cat. 3006).
[…]

Structure (SMILES): CN(C)c1ccc(Nc2c3ccc(NC(=O)CCN4CCCC4)cc3nc3cc(NC(=O)CCN4CCCC4)ccc23)cc1
- viability, T/C (compound 0.0316 µM): 102% [middle of 12 runs]
- viability, T/C (compound 0.1 µM): 101% [middle of 12 runs]
- viability, T/C (compound 0.316 µM): 99.9% [middle of 11 runs]
- viability, T/C (compound 1 µM): 90% [middle of 12 runs]
- viability, T/C (compound 3.16 µM): 86.2% [middle of 12 runs]
- viability, T/C (compound 10 µM): 86% [middle of 12 runs]
- IC50 (compound alone, run of 03/26/2024): > 10000 nM

Structure (SMILES): Cc1[nH]c2ccccc2c1CCNCc1ccc(/C=C/C(=O)NO)cc1 + CN(C)c1ccc(Nc2c3ccc(NC(=O)CCN4CCCC4)cc3nc3cc(NC(=O)CCN4CCCC4)ccc23)cc1
- IC50 (curve of first compound, second compound 0.0316 µM): 253 nM
- IC50 (curve of first compound, second compound 0.1 µM): 237 nM
- IC50 (curve of first compound, second compound 0.316 µM): 231 nM
- IC50 (curve of first compound, second compound 1 µM): 202 nM
- IC50 (curve of first compound, second compound 3.16 µM): 190 nM
- IC50 (curve of first compound, second compound 10 µM): 133 nM
- viability, T/C (second compound 0.0316 µM, first compound 0.000999 µM): 103%
- viability, T/C (second compound 0.0316 µM, first compound 0.00316 µM): 98%
- viability, T/C (second compound 0.0316 µM, first compound 0.00999 µM): 96.5%
- viability, T/C (second compound 0.0316 µM, first compound 0.0316 µM): 102%
- viability, T/C (second compound 0.0316 µM, first compound 0.0999 µM): 85.4%
- viability, T/C (second compound 0.0316 µM, first compound 0.316 µM): 41.5%
- viability, T/C (second compound 0.1 µM, first compound 0.000999 µM): 97.8%
- viability, T/C (second compound 0.1 µM, first compound 0.00316 µM): 97.1%
- viability, T/C (second compound 0.1 µM, first compound 0.00999 µM): 96.6%
- viability, T/C (second compound 0.1 µM, first compound 0.0316 µM): 90.7%
- viability, T/C (second compound 0.1 µM, first compound 0.0999 µM): 87.6%
- viability, T/C (second compound 0.1 µM, first compound 0.316 µM): 37.4%
- viability, T/C (second compound 0.316 µM, first compound 0.000999 µM): 91.2%
- viability, T/C (second compound 0.316 µM, first compound 0.00316 µM): 96.8%
- viability, T/C (second compound 0.316 µM, first compound 0.00999 µM): 88.8%
- viability, T/C (second compound 0.316 µM, first compound 0.0316 µM): 91.1%
- viability, T/C (second compound 0.316 µM, first compound 0.0999 µM): 89.8%
- viability, T/C (second compound 0.316 µM, first compound 0.316 µM): 35.1%
- viability, T/C (second compound 1 µM, first compound 0.000999 µM): 90.9%
- viability, T/C (second compound 1 µM, first compound 0.00316 µM): 88.5%
- viability, T/C (second compound 1 µM, first compound 0.00999 µM): 84.3%
- viability, T/C (second compound 1 µM, first compound 0.0316 µM): 85.5%
- viability, T/C (second compound 1 µM, first compound 0.0999 µM): 81.7%
- viability, T/C (second compound 1 µM, first compound 0.316 µM): 29.6%
- viability, T/C (second compound 3.16 µM, first compound 0.000999 µM): 81.6%
- viability, T/C (second compound 3.16 µM, first compound 0.00316 µM): 88.5%
- viability, T/C (second compound 3.16 µM, first compound 0.00999 µM): 86.5%
- viability, T/C (second compound 3.16 µM, first compound 0.0316 µM): 84.5%
- viability, T/C (second compound 3.16 µM, first compound 0.0999 µM): 72.5%
- viability, T/C (second compound 3.16 µM, first compound 0.316 µM): 32.1%
- viability, T/C (second compound 10 µM, first compound 0.000999 µM): 90%
- viability, T/C (second compound 10 µM, first compound 0.00316 µM): 84.7%
- viability, T/C (second compound 10 µM, first compound 0.00999 µM): 82.6%
- viability, T/C (second compound 10 µM, first compound 0.0316 µM): 84.3%
- viability, T/C (second compound 10 µM, first compound 0.0999 µM): 58%
- viability, T/C (second compound 10 µM, first compound 0.316 µM): 25.9%

Structure (SMILES): Cc1cccc(N(C)C(=O)C2C(O)CCN2c2nc(C)cc(C(F)(F)F)c2C#N)c1 (stereo not drawn)
- viability, T/C (compound 0.0316 µM): 104% and 99.7% and 111%
- viability, T/C (compound 0.1 µM): 97.8% and 92.2% and 88.8%
- viability, T/C (compound 0.316 µM): 82.7% and 99.5% and 103%
- viability, T/C (compound 1 µM): 89% and 97.5% and 98.3%
- viability, T/C (compound 3.16 µM): 102% and 110% and 105%
- viability, T/C (compound 10 µM): 103% and 108% and 100%
- IC50 (curve of compound): > 10000 nM

Structure (SMILES): C=CCn1c(=O)c2cnc(Nc3ccc(N4CCN(C)CC4)cc3)nc2n1-c1cccc(C(C)(C)O)n1
- viability, T/C (compound 0.0316 µM): 98.3% and 95.2% and 87.7%
- viability, T/C (compound 0.1 µM): 73% and 67% and 53.4%
- viability, T/C (compound 0.316 µM): 32% and 32.6% and 26.9%
- viability, T/C (compound 1 µM): 20.9% and 19.1% and 16.4%
- viability, T/C (compound 3.16 µM): 12.8% and 11.1% and 8.08%
- viability, T/C (compound 10 µM): 8.94% and 7.14% and 6.33%
- IC50 (curve of compound): 196 nM and 180 nM and 115 nM
